Data reported in US20230381142A1, “ANTILEISHMANIAL COMPOUNDS, COMPOSITIONS AND USE THEREOF” (TRUSTEES OF BOSTON UNIVERSITY, priority 2022, published 2023).
Values after ≈ are worked out from the molar mass of the structure shown. Read-outs that look alike come from different tables or passages of the source.

Experiments:
[1] = Plasma protein binding (RED); format: in vitro ADME
Experimental: The unbound fraction of compound 1 in plasma was measured using a commercial RED (Rapid Equilibrium Dialysis) plate with inserts (Thermo) with a molecular weight membrane cut off of 8K. The relevant volume of spiked sample matrix was added into the corresponding sample chambers of the RED insert. Three volume equivalents of dialysis buffer were added to the buffer chamber. The dialysis plate was sealed and incubated at 37° C. on a plate shaker for approximately 4 h at 100 rpm. An equivalent volume was removed from each of the three buffer sample chambers and placed into its own well in a clean plate. A specific volume of control matrix was added to each buffer sample for matrix matching. Next, >3× volume of precipitation solvent (acetonitrile+internal standard) was added and the plate was centrifuged. A measured volume of the resulting supernatants was transferred into a clean plate and a specific volume of analytical grade water was added to all samples. Samples were analyzed using a compound-specific LC-MS/MS method to generate analyte peak area ratios which are representative of bound and free drug.

[2] = tested on: L. major promastigotes (strain LV39); assay: Promastigote assay, CellTiter-Glo (Assay Conditions F); format: cell-based; conditions: Leishmania major; read-out: Extracellular promastigote EC50
Experimental: (§1) Assay Conditions F: Leishmania promastigotes (L. major: strain LV39; L. donovani, strain 1S/Cl2D) were maintained as previously described in PloS Negl Trop Dis (2015) 9(3):e0003588 and Pathogens (2021) 10(5):593) at 28° C. in M199 media supplemented with glutamine, adenosine, folic acid, hemin, HEPES, 10% Fetal Bovine Serum (Sigma-Aldrich, cat. no. F2442) and 1% Penicillin-Streptomycin (Gibco, cat. no. 15140122). For the promastigote assay, we followed the method previously described in PloS Negl Trop Dis (2011) 5(7):e1253. Briefly, promastigotes were incubated with the compounds for 72 h at 27° C., then lysed by adding 50 μL of CellTiter-Glo (Promega) and placed on an orbital shaker for 5 min at room temperature. After lysis, the resulting ATP-bioluminescence was measured using the Analyst HT plate reader (Molecular Devices).

[3] = tested on: L. donovani promastigotes (strain 1S/Cl2D); assay: as above; format: cell-based; conditions: Leishmania donovani; read-out: Extracellular promastigote EC50
Experimental: as §1

[4] = Solubility in Fasted Simulated Intestinal Fluid (FaSSIF); format: physicochemical; conditions: thermodynamic from solid
Experimental: Solubility of compounds using ChemiLuminescent Nitrogen Detection (CLND) was measured as described. Solubility of compounds using Charged Aerosol Detection (CAD) was measured as described. Solubility of solid compounds in Fasted Simulated Intestinal Fluid (FaSSIF) was measured as described.

[5] = Artificial membrane permeability (AMP); format: in vitro ADME; conditions: PAMPA, pH 7.4
Summary of the method: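 Passive permeation through 1.8% phosphatidylcholine in 1% decane membrane, 50 mM phosphate buffer pH 7.4 on donor and receiver sides. After 45 min pre-shaking, compounds incubated 3 h at room temperature with shaking, in duplicate; donor and receiver solutions quantified by LC/MS.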

[6] = Mouse microsomal stability; format: in vitro ADME; conditions: mouse liver microsomes
Experimental: Mouse microsomal stability assays were performed as described. Test compound (0.5 μM) was incubated with female CD1 mouse (Xenotech) liver microsomes and their action started with addition of excess NADPH (8 mg/mL 50 mM potassium phosphate buffer, pH 7.4). Aliquots (50 μL) of the incubation mixture were removed immediately (at time 0) and at 3, 6, 9, 15, and 30 min and mixed with acetonitrile (100 μL) to stop the reaction. Internal standard was added to all samples, the samples were centrifuged to sediment precipitated protein, and the plates were then sealed prior to UPLC-MS/MS analysis using a Quattro Premier XE (Waters Corporation, USA). XLfit (IDBS, UK) was used to calculate the exponential decay and consequently the rate constant (k) from the ratio of the peak area of test compound to internal standard at each time point. The rate of intrinsic clearance (Cli) of each test compound was then calculated using the equation Cli (mL/min/g liver)=k×V×microsomal protein yield, where V (mL/mg protein) is the incubation volume/mg protein added and microsomal protein yield is taken as 52.5 mg protein/g liver. Verapamil (0.5 μM) was used as a positive control to confirm acceptable assay performance.

HepG2 cells = assay: HepG2 cytotoxicity; format: cell-based; conditions: Homo sapiens; toxicity against HepG2 cells
[7] = tested on: L. donovani intracellular amastigotes infecting THP-1 macrophages; assay: GSK intramacrophage L. donovani assay (LD AMMAC, inMac; Assay Conditions C); format: cell-based; conditions: Leishmania donovani
Summary of the method: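 EC50 values come from counting amastigotes per infected THP-1 macrophage (AMMAC). Parallel read-outs give percentage of infected cells per well (INFCELL) and a macrophage-number toxicity EC50 (MAC).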

Whole blood stability = format: in vitro ADME; conditions: criterion: no % reduction over 120 min
[8] = Property forecast index (PFI = ChromLogD7.4 + aromatic rings); format: physicochemical
[9] = growth inhibition of L. donovani intracellular amastigotes infecting THP-1 macrophages, read-out: LD AMMAC EC50

fraction unbound at 4 h [1]	solubility [4] [µg/mL]	Papp at 3 h [5] [×10⁻⁶ cm/s]	half-life at 0.5 μM ([6]; female, CD1, pH 7.4, read-out: Microsomal stability (mouse) t1/2) [min]	Microsomal stability (mouse) Clint [6]	IC50 ([7]; THP-1) [µM]	EC50 ([7]; THP-1, GSK lead selection criteria, read-out: Antiparasitic activity EC50, L. donovani amastigotes) [µM]	EC50 [7, 9] [µM]	Whole blood stability (Whole blood stability)	PFI [8]	SMILES	EC50 [2] [µM]	EC50 [3] [µM]	EC50 (HepG2 cells) [µM]
0.025	130 (≈ 343 µM)	34.5	> 20	Clint < 3.4 mL/min/g	2.5	2.5	2.5	Pass	8.4	COc1ccc(N2C(=O)c3[nH]nc(CC(C)C)c3C2c2ccc(F)cc2)cc1 (racemic) [Compound 1, 4-(4-fluorophenyl)-3-isobutyl-5-(4-methoxyphenyl)-4,5-dihydropyrrolo[3,4-c]pyrazol-6(1H)-one]	4.4	2	63.1
–	–	37	–	–	3.2	–	3.2	–	8.4	COc1ccc(N2C(=O)c3[nH]nc(CC(C)C)c3C2c2ccccc2)cc1 (centres unmarked) [Compound 2]	4.2	2.4	79.4
